Reference: patent publication US5599925A, “Penam derivatives” (Otsuka Kagaku Kabushiki Kaisha, priority 1991, dated 1997)
Values after ≈ are worked out from the molar mass of the structure shown.

How the values were obtained:
Test in all cases: in vitro antibacterial potency test, doubling dilution agar plate method
Type in all cases: cell-based
[1] = tested on: Staphylococcus aureus 209P; details: 20 hours at 37° C., inoculum 0.005 ml of ca. 10^8 /ml, read-out: minimal inhibitory concentration (MIC)
Experimental: (§1) Using compound (1a-i), an in vitro antibacterial potency test was performed by the doubling dilution agar plate method. Each test strain was cultured in a sensitivity assay bouillon for 20 hours and 0.005 ml of the culture (viable cell count: ca. 10^8 /ml) was inoculated on a sensitivity assay agar medium containing a varying concentration of the antibacterial compound.
(§2) After 20 hours of incubation at 37° C., the minimal inhibitory concentration (MIC) was determined and expressed in units of μg/ml.

[2] = tested on: Pseudomonas aeruginosa; details: 20 hours at 37° C., inoculum 0.005 ml of ca. 10^8 /ml, read-out: minimal inhibitory concentration (MIC)
Experimental: as §1, §2

[3] = tested on: Escherichia coli NIHJ-JC2; details: NIHJJC2, 20 hours at 37° C., inoculum 0.005 ml of ca. 10^8 /ml, read-out: minimal inhibitory concentration (MIC)
Experimental: as §1, §2

[4] = tested on: Serratia marcescens; details: 20 hours at 37° C., inoculum 0.005 ml of ca. 10^8 /ml, read-out: minimal inhibitory concentration (MIC)
Experimental: as §1, §2

[5] = tested on: Proteus vulgaris; details: 20 hours at 37° C., inoculum 0.005 ml of ca. 10^8 /ml, read-out: minimal inhibitory concentration (MIC)
Experimental: as §1, §2

[6] = tested on: Staphylococcus aureus, methicillin-resistant; details: 20 hours at 37° C., inoculum 0.005 ml of ca. 10^8 /ml, read-out: minimal inhibitory concentration (MIC)
Experimental: as §1, §2

MIC [1]: 0.1 µg/mL (≈ 0.228 µM)
MIC [2]: 100 µg/mL (≈ 228 µM)
MIC [3]: 12.5 µg/mL (≈ 28.5 µM)
MIC [4]: 12.5 µg/mL (≈ 28.5 µM)
MIC [5]: 0.39 µg/mL (≈ 0.889 µM)
MIC [6]: 100 µg/mL (≈ 228 µM)
Compound: COC(=O)CCSCC1SC2C(NC(=O)Cc3ccccc3)C(=O)N2C1C(=O)O (stereo not drawn) [compound (1a-i)]
